From publication PMC8868285, “Pharmacological Inhibition of Epac1 Averts Ferroptosis Cell Death by Preserving Mitochondrial Integrity” (Antioxidants, 2022)

How the values were obtained:
[1] = test system: isolated mitochondria from HT-22 cells; assay: High-resolution respirometry (Oroboros) of isolated mitochondria; set-up: species or system mouse
Experimental: Mitochondria were isolated from harvested HT-22 cells (4–8 × 10^7 cultivated in T75 flasks) using a semi-automated pump-controlled cell rupture system (PCC) (0.71 mL/min) with syringes (SGE, Trajan© Scientific, Ringwood, Australia) attached to a cell homogenizer (Isobiotech, EMBL, Heidelberg, Germany) (bead size of 10 μm suitable for HT-22 cells) and superimposed on a pump (ProSense B.V, Oosterhout, The Netherlands, #NE1000). Collected samples were centrifuged at 800 rpm for 10 min at 4 °C. The supernatant was further centrifuged at 9000× g for 10 min at 4 °C. The resulting pellet was the crude mitochondria. Finally, the mitochondria were suspended in an isolation buffer (HEPES 20 mM, sucrose 250 mM EDTA 3 mM, pH 7.5) for subsequent experiments. The whole procedure was executed on ice.
The protein concentration of isolated mitochondria was determined using the Pierce™ BCA Protein Assay Kit (Pierce™ BCA Protein Assay Kit, Thermo Scientific, Rockford, IL, USA, #23225). Respiration of the isolated mitochondria from HT-22 cells was analyzed using the high-resolution respirometry oxygraph O2K (Oroboros Systems, Innsbruck, Austria). The isolated mitochondria (200 μg) prepared as previously described, were treated with either CE3F4, ESI-05, ethanol, or DMSO as appropriate for 25 min, followed by mitochondrial respiration measurements. Mitochondrial state 1 was determined by continuous stirring at 750 rpm in 1 mL of MiR05 buffer (MgCl2 3 mM, lactobionic acid 60 mM, EGTA 0.5 mM taurine 20 mM, KH2PO4 10 mM, D-Sucrose 110 mM, HEPES 20 mM, BSA, essential fatty acid-free1 g/L, pH adjusted to 7.4). DatLab software (Oroboros Systems, Innsbruck, Austria) was used to record real-time oxygen flux per tissue mass (pmol O2. s^−1 × mg^−1) at 37 °C and to perform oxygen polarography. States were described as, State 2: a non-phosphorylating respiration state which was assessed by addition of complex-I linked substrates, 5 mM pyruvate (Sigma–Aldrich Chemie GmbH, Steinheim, Germany #P-2256), and 2 mM malate (Sigma–Aldrich Chemie GmbH, Steinheim, Germany, #374318); State 3: the oxidative-phosphorylation capacity (OXPHOS) state, of complex-I linked activity or basal respiration was achieved by adding a saturating concentration of 0.8 mM ADP (Sigma–Aldrich Chemie GmbH, Steinheim, Germany, #A5285), this allowed for calculation of ADP-coupled repiration; State 4: Achieved by subsequent addition of oligomycin 0.1 μM/mL (Sigma–Aldrich Chemie GmbH, Steinheim, Germany, #O4876) following state 3, oligomycin blocks the ATP-synthase, thereby inhibiting proton passage; State 3U: Was assessed by incremental steps of 1 μM addition of FCCP—theprotonophore carbonyl cyanide 4-(trifluoromethoxy) phenylhydrazone (Sigma–Aldrich Chemie GmbH, Steinheim, Germany, #C2920), this allowed the calculation of the reserve capacity of the Electron Transport Chain (ETC); Finally, sodium dithionite (DTT, Sigma–Aldrich Chemie GmbH, Steinheim, Germany, #15,795-3) was added to reduce all residual oxygen that was present in the chamber and to calibrate the oxygen content in the chamber. The O2 slope (pmol × (mL/s)) of isolated mitochondria was the oxygen concentration and also the initial derivate of the oxygen concentration—a derivative of oxygen consumption. Measurements were recorded in intervals of 2 s by using a background correction after calibration of the polarographic oxygen sensors.

HT-22 cells = assay: Mitochondrial membrane potential, TMRE FACS; conditions: for effect on erastin-induced ΔΨm loss: no significant difference to control
Experimental: Flow cytometry analysis using the CytoFLEXS benchtop flow cytometer (Beckman Coulter Life Sciences, Indianapolis, IN, USA) was used to evaluate intracellular parameters that are associated with not only oxidative stress but also mitochondrial dysfunction, and cell death. HT-22 cells (40,000 cells/well) seeded in 24-well plates were treated with various conditions. Treatment groups included: control condition (DMSO 1%), erastin 1 µM or 1.5 µM, CE3F4 100 µM, and co-treatment of erastin and CE3F4. Three separate wells were analyzed for each condition and the same number of counts (10,000/well) were measured by flow cytometry. At least three independent experiments were performed, and the Kaluza Analysis 1.5 software was employed for quantification of data.
Staining with TMRE™ dye (tetramethylrhodamine-ethyl ester; Invitrogen, Oregon City, OR, USA, #T669) was used to determine loss of mitochondrial membrane potential (MMP) (ΔΨm). […] Collected cells were incubated for 20 min with TMRE 0.2 μM at 37 °C. Fluorescence excitation and detection were done at 488 nm 690/50 nm respectively.

SMILES: CC1CCc2c(cc(Br)c(F)c2Br)N1C=O (stereo not drawn) [CE3F4]
- ADP-coupled respiration ([1]; 30 μM CE3F4): no significant differences
- ADP-coupled respiration ([1]; 100 µM CE3F4): no significant differences
- mitochondrial respiration states (2, 3, 4, 3U) ([1]; CE3F4 30 μM and 100 μM, 25 min): no significant effect on any mitochondrial respiration states
- effect on erastin-induced ΔΨm loss (HT-22 cells; 100 µM CE3F4 + erastin 1 μM): significantly attenuated ΔΨm loss
- effect on erastin-induced ΔΨm loss (HT-22 cells; 100 µM CE3F4 + erastin 1.5 μM): significantly attenuated ΔΨm loss
- mitochondrial membrane potential (ΔΨm) (HT-22 cells; CE3F4 alone): slight hyperpolarization
